Results on 21 compounds are retold here after PMC4820820, “CETSA screening identifies known and novel thymidylate synthase inhibitors and slow intracellular activation of 5-fluorouracil” (Nature Communications, 2016).

Several values for one entry are separate records, joined by “and”; a condition that tells them apart may be missing. Equal entries are not always repeated. Where two headings read alike, the source gives them in different places.

The target in series [1] is T1, human thymidylate synthase (TS) (Homo sapiens, UniProt P04818).
T1 construct: screening in live, non-engineered cells expressing thymidylate synthase; endogenous in cells; host or cells: K562 (human myelogenous leukemia) cells
T1 sequence (P04818 2-313 limits assumed): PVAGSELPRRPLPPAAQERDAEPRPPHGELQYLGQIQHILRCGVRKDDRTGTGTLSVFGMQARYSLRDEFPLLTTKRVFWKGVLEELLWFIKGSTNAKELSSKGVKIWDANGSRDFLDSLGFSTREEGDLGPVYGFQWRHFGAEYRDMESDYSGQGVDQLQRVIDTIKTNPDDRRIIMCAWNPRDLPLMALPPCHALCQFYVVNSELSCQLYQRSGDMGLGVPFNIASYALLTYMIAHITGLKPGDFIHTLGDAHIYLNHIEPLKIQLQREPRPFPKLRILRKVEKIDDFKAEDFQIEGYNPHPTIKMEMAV
As to the kind of experiment: ITDRF CETSA at 50 °C, AlphaScreen detection, live K562 cells. Type of series: cell-based. Particulars: for EC50: 2 h preincubation. As to the method:
For the […] experiments 11-point dose-response curves with three-fold difference in concentration between wells were generated using the Bravo liquid handling system (all serial dilutions were done in 100% DMSO). […] The concentration of DMSO was 0.5% in all samples. […] The assay ready plates were prepared as outlined above for the screen.
(§1) The screen procedure started with the addition of 5 μl of a suspension of K562 cells at a density of 10 million cells per ml to all wells of a 384 well hardshell PCR plate (HSR480, BIORAD) using an electronic multichannel pipette (Biohit). […] For the time-course experiments the incubation times were altered to include also 10 min, 30 min and 6 h. […] After the incubation step the plates were transiently heated at 50 °C for 3 min followed by a controlled cooling to 20 °C for 1 min using a real-time PCR machine (LightCycler480 system, Roche). Plate handling was then as described above for the thermal aggregation experiments. The data were analyzed using microsoft excel and GraphPad Prism 6.
(§2) A calculation of the average and standard error of means for each set of controls also allowed an illustration of how these responses varied over the 32 screening plates. The Z′ factor[38] is commonly used as a measure of how well the assay separates between the controls and this was calculated as described based on the calculated averages and standard deviations of the controls on a per plate basis. For the Tagg shift and the […] experiments the data were analyzed in GraphPad Prism using the Boltzmann sigmoid equation and the saturation binding curve (rectangular hyperbola; binding isotherm) function, respectively. As already discussed[14] these methods make use of equilibrium models for data analysis although the methodology depends on the irreversible aggregation of denatured material. For this reason we refer to the observed responses as apparent and isothermal dose-response fingerprints and are careful with any quantitative interpretations, being well aware of their dependency on experimental conditions. Experiments are on-going to address the quantitative interpretation of CETSA data.
A general note: In Alpha technology, singlet oxygen from a donor bead excites a nearby acceptor bead.

In series [2] the target is T1, human thymidylate synthase (TS). As to the kind of experiment: CETSA primary screen / single-concentration retest, AlphaScreen, live K562 cells. The format is cell-based. Particulars: for % stabilization in screen at 50 µM: K562, 2 h, read-out: % stabilization in screen. As to the method: Compounds were placed in columns 1–22. […] At the day of the experiment the plates were allowed to thaw for 30 min followed by a brief centrifugation step (1,000 × g for 1 min) prior to removal of the seal. The compounds were then diluted with 20 μl supplemented cell culture medium using a Multidrop Combi reagent dispenser (Thermo Scientific). Finally 5 μl of the diluted compounds were transferred to a 384 well hardshell PCR plate (HSR480, BIORAD) using a Bravo liquid handling platform equipped with a 384-well head (Agilent). […] The final concentration of DMSO in the assay was 0.5% in all samples.
as §1, §2

A short description of series [3]: Intracellular compound and metabolite concentrations by LC-MS/MS in K562 cells. Type of series: in vitro ADME, human. Particulars: K562 cells incubated with 100 µM 5-FU, first 6 h. Here is the method:
Intracellular concentrations of compounds were measured as previously described. Briefly, K562 cells were incubated with the compounds for a predefined time at 37 °C in a 5% CO2 atmosphere. After incubation, the cells were centrifuged (300 × g for 5 min) and a medium sample (supernatant) was collected and diluted 1:10 in a 50 nM warfarin solution (internal standard). The cells were washed with phosphate buffered salt solution and lysed with methanol. Methanol was evaporated and the cell samples were reconstituted in 50 nM warfarin. Samples were analyzed with LC–MS/MS with electrospray ionization in negative mode with transitions monitored as listed in Table 2.

The target in the next series is TS (Homo sapiens, UniProt P04818). As to the kind of experiment: Thermal shift in vitro assay on recombinant protein. The format is binding. Further details: His6 tag with TEV site (vector-encoded by pNIC28-Bsa4); made in house; host or cells: Rosetta BL21-DE3 Escherichia coli. The following applies: nucleoside without enzyme treatment. As to the method: The assay was performed on the iCycler iQ Real Time PCR Detection System (Bio-Rad), using the 96-well thin-wall PCR plate (Bio-Rad). The experiment was conducted in a buffer containing 20 mM HEPES at pH 7.5 and 150 mM NaCl. A total volume of 25 μl solution containing 0.2 mg ml^−1 protein, compounds and × 5 Sypro Orange dye (Invitrogen) diluted from 5,000 × stock was dispensed into the 96-well plate. The same amount of DMSO was added in the control wells. The plates were sealed with Microseal B adhesive sealer (Bio-Rad) and heated in iCycler from 25 to 80 °C (56 heating cycles in 28 min). Fluorescent filter used for Sypro Orange measurements was λexcitation=492 nm and λemission=610 nm. The calculation of the midpoint of the curves (Tm) was performed using the software package XLfit from IDBS within microsoft excel.
TS, sequence (P04818 whole entry): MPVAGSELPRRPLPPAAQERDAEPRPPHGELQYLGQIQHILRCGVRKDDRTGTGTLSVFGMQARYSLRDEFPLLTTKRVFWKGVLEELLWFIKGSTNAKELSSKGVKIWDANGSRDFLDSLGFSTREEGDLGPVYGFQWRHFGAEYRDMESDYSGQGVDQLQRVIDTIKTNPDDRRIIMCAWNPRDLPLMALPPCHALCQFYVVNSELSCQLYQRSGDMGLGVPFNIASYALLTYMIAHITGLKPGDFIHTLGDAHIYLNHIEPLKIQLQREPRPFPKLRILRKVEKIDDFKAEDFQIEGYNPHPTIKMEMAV
Decitabine at a concentration of 1 mM was incubated with 1 mg ml^−1 of recombinant DCK and 2.5 mM ATP in a buffer of 50 mM Tris at pH 7.5, 150 mM NaCl and 0.5 mM MgCl2 at room temperature for 60 min to generate the corresponding monophosphates. To probe for nucleotide deamination the samples were further treated with 1 mg ml^−1 of recombinant DCTD in the presence of 1 mM ATP and 10 μM ZnCl2 for 20 min at room temperature. After incubation, the samples were heated at 95 °C for 10 min and centrifuged for 10 min at the highest speed at 4 °C using a benchtop centrifuge. The supernatant was tested without dilution in thermal shift in vitro assays and the TS enzyme inhibition assay. The supernatants from samples without nucleoside were used as the treatment controls.

The target in series [4] is T1, human thymidylate synthase (TS). In words: CETSA Tagg curves, AlphaScreen detection, live K562 cells. The following applies: 2 h preincubation, 3 min heating, DMSO control 46.7±0.2 °C. Type of series: cell-based. As to the method:
The data were analyzed using microsoft excel and GraphPad Prism 6.
as §2

Setting [5] is: 50 °C, unit taken from curve axis log [cmp] (M), read-out: ITDRF CETSA (hit confirmation).
Setting [6] is: 50 μM compound, 2 h preincubation, 50 °C, 0% = DMSO, 100% = 100 nM raltitrexed.

Turning to `O=c1[nH]c(=O)n([C@@H]2O[C@H](CO)[C@@H](O)[C@H]2O)cc1F` [5-fluorouridine], the EC50 in series [1] (50 °C for 3 min, read-out: […] EC50 (half-maximal stabilization of TS)) was determined as 4.7e-08 ± 1.5e-08 M. `CCc1nc(N)nc(N)c1-c1ccc(Cl)cc1` [CBK041886, Pyrimethamine, reference compound]: the % stabilization in screen at 50 µM in series [2] stood at 76%. Also, the EC50 in series [1] (setting [5]) is 8.38e-06 M.

For `CC#Cc1cn([C@H]2C[C@@H](O)[C@@H](CO)O2)c(=O)[nH]c1=O` [CBK201182], the “% stabilization in screen” value in series [2] (setting [6]) amounted to 90%. The EC50 in series [1] (setting [5]) is 2.28e-05 M. Taken in the same sequence, the figures for `Cc1cc(C)c(Oc2nc(=O)n([C@H]3C[C@@H](O)[C@@H](CO)O3)cc2F)c(C)c1` [CBK201184] were 66% and 9.17e-06 M. Turning to `C#Cc1cn([C@H]2C[C@H](O)[C@@H](CO)O2)c(=O)[nH]c1=O` [CBK201207, 5-ethynyl-2′-deoxyuridine, reference compound], in series [2] (setting [6]), the % stabilization in screen at 50 µM was 102%. In series [1] (setting [5]), the EC50 was determined as 1.41e-09 M.

Take `Nc1nc(=O)n([C@H]2C[C@@H](O)[C@@H](CO)O2)cc1O` [CBK201221]: the “% stabilization in screen” value in series [2] (setting [6]) is 22%. Further, the EC50 in series [1] (setting [5]) came to 3.43e-07 M.

Take `COCc1cn(C2CC(O)C(CO)O2)c(=O)[nH]c1=O` (stereo not shown) [CBK201230]: the “% stabilization in screen” value in series [2] (setting [6]) is 23%. Also, the EC50 in series [1] (setting [5]) was 1.42e-07 M.

For `O=C(/C=C/c1cn(C2CC(O)C(CO)O2)c(=O)[nH]c1=O)NCCCCCCNC(=O)C(F)(F)F` (stereo not shown) [CBK201310], in series [2] (setting [6]), the “% stabilization in screen” value came to 15%. Take `Cc1cn([C@H]2C[C@@H](O)[C@@H](CN)O2)c(=O)[nH]c1=O` [CBK201315]: the “% stabilization in screen” value in series [2] (setting [6]) is -1%. Still for that read-out and setting: to `O=c1ccn([C@H]2C[C@@H](O)[C@@H](CO)O2)c(=O)[nH]1` [CBK201316] belongs -1%; to `O=c1[nH]c(=O)n([C@H]2C[C@@H](O)[C@@H](CO)O2)cc1O` [CBK201317], 16%; to `Cc1cn([C@H]2C[C@@H](O)[C@@H](CO)O2)c(=O)n(CCC#N)c1=O` [CBK201322], -1%.

`CN(C)/C=N/c1nc(=O)n([C@H]2CC(O)[C@@H](CO)O2)cc1/C=C/C(=O)NCCCCCCNC(=O)C(F)(F)F` (stereo partly shown) [CBK201330]: the “% stabilization in screen” value in series [2] (setting [6]) is reported as 13%.

For `O=c1[nH]c(=O)n([C@H]2C[C@@H](O)[C@@H](CO)O2)cc1CO` [CBK201332], the “% stabilization in screen” value in series [2] (setting [6]) came out at 9%. The “% stabilization at retest (6h preincubation)” value in series [2] (6 h preincubation, K562 cells) is listed as 7%. As for `CCOc1nc(=O)c(C)cn1C1CC(O)C(CO)O1` (stereo not shown) [CBK201334], the “% stabilization in screen” value in series [2] (setting [6]) is -1%. In the case of `COC(=O)/C=C/c1cn(C2OC(CO)C(O)C2O)c(=O)[nH]c1=O` (stereo not shown) [CBK201339], the “% stabilization in screen” value in series [2] (setting [6]) was -1%. On to `O=c1[nH]cc(F)c(=O)[nH]1` [Compound 5-FU, 5-fluorouracil], for which the % stabilization in screen at 50 µM in series [2] amounted to 48%. In addition, the “intracellular levels of FdUMP” value in series [3] is given as “undetectable”. The EC50 in series [1] (50 °C for 3 min, read-out: […] apparent EC50) was 1.9e-05 ± 4e-06 M. Take `O=c1[nH]c(=O)n([C@H]2C[C@H](O)[C@@H](CO)O2)cc1C(F)(F)F` [TFT, 5-trifluoro-2′-deoxythymidine]: the % stabilization in screen at 50 µM in series [2] was determined as 66%. For the same compound, in series [1] (setting [5]), the EC50 was 3.18e-10 M. The “stabilization of recombinant TS in thermal shift assay” value on TS is “did not stabilize”. As to `O=c1ccn([C@H]2C[C@H](O)[C@@H](CO)O2)c(=O)[nH]1` [deoxyuridine], the “stabilization of recombinant TS in thermal shift assay” value at TS is reported as “did not stabilize”. Consider `O=c1[nH]c(=O)n([C@H]2C[C@H](O)[C@@H](CO)O2)cc1F` [floxuridine, 5-fluorodeoxyuridine], for which the “apparent Tagg of TS” value in series [4] (15 μM floxuridine) is “above 65 °C”. For the same compound, in series [2] (setting [6]), the % stabilization in screen at 50 µM stood at 64%. For the same compound, the “concentration giving stabilization of TS (CETSA)” value in series [1] (10 min of pre-incubation) is “low nM”. The EC50 in series [1] (setting [5]) was 6.61e-11 M; in series [1] (ITDRFCETSA EC50 (half-maximal stabilization of TS), 50 °C for 3 min, read-out: […] EC50 (half-maximal stabilization of TS)) it was 6.5e-11 M and 4.7e-11 M. In addition, on TS, the “stabilization of recombinant TS in thermal shift assay” value is “did not stabilize”. With `Cc1nc2ccc(CN(C)c3ccc(C(=O)N[C@@H](CCC(=O)O)C(=O)O)s3)cc2c(=O)[nH]1` [raltitrexed], the “apparent Tagg of TS” value in series [4] (1 μM raltitrexed) is “above 65 °C”.
